The test system of the test is breast cancer cells. The experiment in a line: In vitro bioactivity analysis: killing of cancer cells by minimal MTT method. Format: cell-based. To be noted: culture medium RPMI-1640 containing 2% calf serum, compared with paclitaxel standard sample. The text has this:
FIG. 10 is the chart of the effects of paclitaxel sample made by the method of present invention and standard paclitaxel sample on the killing percentage against […] cells by minimal MTT method by the use of culture medium RPMI-1640 containing 2% calf serum.
In vitro bioactivity analysis of the fermented paclitaxel show high efficacy on killing breast cancer cells.
A general note: Tetrazolium dyes change colour on reduction, which living cells bring about.

`CC(=O)O[C@H]1C(=O)[C@@]2(C)[C@H]([C@H](OC(=O)c3ccccc3)[C@]3(O)C[C@H](OC(=O)[C@H](O)[C@@H](NC(=O)c4ccccc4)c4ccccc4)C(C)=C1C3(C)C)[C@]1(OC(C)=O)CO[C@@H]1C[C@@H]2O` [fermented paclitaxel, 5β, 20-epoxy-1,2α,4,7β 10β 13α-hexahydroxy-tax-11-en-9-one-4,10-diacetate-2-benzoate-13-ester with (2R, 3S)-N-benzoyl-3-phenyl isoserine]: the “efficacy on killing breast cancer cells (killing percentage, FIG. 10)” value is recorded as “high efficacy”. Moreover, the “efficacy on killing breast cancer cells (killing percentage, FIG. 10)” value (listed as paclitaxel from Examples 20-24) is given as “same effects as paclitaxel standard samples”.

Source of the values: patent US20070218531A1, “Micro-Organism and a Method of Producing Paclitaxel by the Use of the Same” (HAIYI BIOTECH PTE LTD, priority 2004, published 2007).
